According to ChEMBL document CHEMBL5032525, “In vitro, ex vivo and in vivo short-term screening of DHEA nitrate derivatives activity over Trypanosoma cruzi Ninoa and TH strains from Oaxaca State, México” (Bioorg Med Chem, 2021):
pIC50: −log10 of the molar value.

Experiments:
[1] = Cytotoxicity against mouse J774.2 cells assessed as reduction in cell viability measured after 48 hrs by resazurin dye based assay
in vitro [2] = details: mouse
Description: Selectivity index, ratio of CC50 for mouse J774.2 cells to IC50 for Trypanosoma cruzi MHOM/MX/1994/Ninoa

Trypanosoma cruzi [3] = assay: microbe, parasite or virus in culture; assay type: functional, organism-based; details: MHOM/MX/1994/Ninoa, 48 h
Description: Trypanocidal activity against Trypanosoma cruzi MHOM/MX/1994/Ninoa assessed as inhibition of parasite growth measured after 48 hrs by MTT assay

Trypanosoma cruzi [4] = assay: microbe, parasite or virus in culture; assay type: functional, organism-based; details: ITRI/MX/2018/TH, 48 h
Description: Trypanocidal activity against Trypanosoma cruzi ITRI/MX/2018/TH assessed as inhibition of parasite growth measured after 48 hrs by MTT assay

in vitro [5] = details: mouse; remark: listed apart in the source
Description: Selectivity index, ratio of CC50 for mouse J774.2 cells to IC50 for Trypanosoma cruzi ITRI/MX/2018/TH

Trypanosoma cruzi [6] = assay: microbe, parasite or virus in culture; assay type: functional, organism-based; details: MHOM/MX/1994/Ninoa, 24 h
Description: Antitrypanosomal activity against Trypanosoma cruzi MHOM/MX/1994/Ninoa infected in animal assessed as reduction in viable parasite in blood measured after 24 hrs by neubauer chamber assay

SMILES | CC50 at 48 h ([1]; J774.2 cells) [µM] | selectivity ratio (in vitro [2]; J774.2 cells) | pIC50 (Trypanosoma cruzi [3]) | pIC50 (Trypanosoma cruzi [4]) | selectivity ratio (in vitro [5]; J774.2 cells) | pIC50 (Trypanosoma cruzi [6]) | CC50 at 48 h ([1]; j774.2) [µM] | selectivity ratio (in vitro [2]) | selectivity ratio (in vitro [5])
C[C@]12CC[C@H](O)CC1=CC[C@@H]1[C@@H]2CC[C@]2(C)C(=O)CC[C@@H]12 [PRASTERONE] | 198 | 3.19 | 4.21 | 4.86 | 14.3 | < 3.52 | – | – | –
O=C(Cn1ccnc1[N+](=O)[O-])NCc1ccccc1 [BENZNIDAZOLE] | – | – | – | 4.41 | – | – | – | – | –
C[C@]12CC[C@H]3[C@@H](CC=C4C[C@@H](O)CC[C@@]43CO)[C@@H]1CCC2=O | 75.4 | 2.08 | 4.44 | 3.32 | 0.15 | < 3.52 | – | – | –
C[C@]12CC[C@H](O[N+](=O)[O-])CC1=CC[C@@H]1[C@@H]2CC[C@]2(C)C(=O)CC[C@@H]12 | 0.2 | 0.01 | 4.48 | 6.70 | 1 | < 3.52 | – | – | –
C#C[C@]1(O[N+](=O)[O-])CC[C@H]2[C@@H]3CC=C4C[C@@H](O[N+](=O)[O-])CC[C@]4(CO[N+](=O)[O-])[C@H]3CC[C@@]21C | 22.3 | 11 | 5.67 | 3.49 | 0.07 | < 3.52 | – | – | –
C#C[C@]1(O)CC[C@H]2[C@@H]3CC=C4C[C@@H](O[N+](=O)[O-])CC[C@]4(CO[N+](=O)[O-])[C@H]3CC[C@@]21C | 39.8 | 14.2 | 5.55 | 3.49 | 0.13 | < 3.52 | – | – | –
CC1CS(=O)(=O)CCN1/N=C/c1ccc([N+](=O)[O-])o1 (stereo unspecified) [NIFURTIMOX] | – | – | 5.15 | 4.71 | – | – | – | – | –
C[C@]12CC[C@H]3[C@@H](CC=C4C[C@@H](O[N+](=O)[O-])CC[C@@]43CO[N+](=O)[O-])[C@@H]1CCC2=O | 130 | 2.68 | 4.32 | 3.37 | 0.3 | 3.53 | – | – | –
C[C@]12CC[C@H]3[C@@H](CC=C4C[C@@H](O)CC[C@@]43C)[C@@H]1CC[C@@H]2O [ANDROSTENEDIOL] | – | – | 5.65 | 4.43 | – | < 3.52 | 278 | 125 | 7.5
C[C@]12CC[C@H]3[C@@H](CC=C4C[C@@H](O[N+](=O)[O-])CC[C@@]43C)[C@@H]1CC[C@@H]2O[N+](=O)[O-] | 151 | 0.44 | 3.46 | 4.11 | 1.89 | < 3.52 | – | – | –
